Where “and” joins values, the source holds several entries; their conditions need not be identical. Identical values can stand only once. Entries after “also recorded” stand apart in the source; their conditions may differ. Like-named read-outs stand apart in the source and are kept apart here.
Columns and labels:
[1] = rat, in vivo
[2] = Antiphlogistic effect, carrageenin-oedema test (Series 1, Table 3)
Protocol: The antiphlogistic effects were studied on Wistar rats of both sexes, animal subjects found to be particularly prone to indomethacin ulcerogenisis, each weighing 100 to 150 g. The animals were starved for 24 hours, and then 0.1 ml portions of a 1% carrageenin solution were injected under mild ether anaesthesia into the plantar region of one of the hind paws in order to provoke inflammation (oedema). The antiphlogistic agent or a combination thereof was introduced into the stomach of the animals via a stomach tube immediately before injecting the carrageenin solution. 4 hours after this treatment the animals were sacrificed, and both hind paws were amputated above the ankles. The paws were weighed, and the oedema weight was calculated from the weight difference of the treated and untreated paws.

[3] = 3-day gastrointestinal side-effect test on non-starved animals (Table 4); assay type: in vivo, rats
Protocol: In the following tests animals treated for 3 days with various combinations of indomethacin and sodium salicylate were examined. The non-starved test animals were treated orally for 3 days with compositions containing 20 mg/kg of indomethacin and increasing amounts of sodium salicylate.

in vivo [4] = details: rat, po
[5] = general statement; cited from earlier work
[6] = rat, in vivo; for Analgesic ED50 / Therapeutical index LD50/ED50 (C): po
[7] = rat, in vivo; remark: listed apart in the source
in vivo [8] = details: rat, po; remark: listed apart in the source
in vivo [9] = details: rat, po; remark: listed apart in the source
in vivo [10] = details: rat, po; remark: listed apart in the source
[11] = rat, in vivo; for ED50 at 180 min: po
[12] = treated subsequently with Na-salicylate; cited from earlier work
[13] = Gastric ulcerogenic side-effects, starved rats (Series 1, Tables 1 and 2); details: for No. of ulcer/stomach / Ulcer-free animals % / Ulcer-free animals No.: 4 h
prostaglandin synthesis = details: listed as Na-salicylate; cited from earlier work
[14] = indomethacin 3 × 20 mg/kg p.o. alone

CC(=O)Oc1ccccc1C(=O)O [Aspirin, acetylsalicylic acid]
ulcerogenic side-effects when administered together with sodium salicylate [1]: can also be antagonized effectively
main antiphlogistic effects when administered together with sodium salicylate [2]: remain unchanged, or even the antiphlogistic effects of the two active agents are superimposed

COc1ccc2c(c1)c(CC(=O)O)c(C)n2C(=O)c1ccc(Cl)cc1 [Indomethacin]
Died animals No. [3, 14]: 33 No.
Ulcerous animals % [3, 14]: 100%
Ulcerous animals No. [3, 14]: 45 No.
ulcers in the intestines of the survivors ([3]; indomethacin only, 20 mg/kg for 3 days, orally): clearly visible ulcers appeared in the intestines of the survivors
mortality at 72 h ([3]; rat, in vivo, po, indomethacin 3 × 20 mg/kg p.o. alone, 3rd day, read-out: Died animals %): 73%
LD50 (in vivo [4]): 12.5 mg/kg
ulcerating potency among non-steroid antiinflammatory agents [5]: most potent ulcerating compound
Relative intestinal toxicity IUD50/ED50 (C) [6]: 3.8
Analgesic ED50 [6]: 3.65 mg/kg
Therapeutical index LD50/ED50 (C) [6]: 3.4
acute toxicity of indomethacin alone relative to combination with Na-salicylate [7]: 72 fold
selectivity ratio (in vivo [8]): 5.2
TD50 at 48 h (in vivo [9]): 14 mg/kg
Inhibition of oedema, 3rd day, left (challenged) foot (daily dose 0.65 mg/kg p.o.): 26.7 percentage of control
Inhibition of oedema, 21st day, left foot (daily dose 0.65 mg/kg p.o.): 46.6 percentage of control
Inhibition of oedema, 21st day, right foot (daily dose 0.65 mg/kg p.o.): 47.2 percentage of control
Inhibition of oedema, 3rd day, left (challenged) foot (daily dose 1.25 mg/kg p.o.): 36.3 percentage of control
Inhibition of oedema, 21st day, left foot (daily dose 1.25 mg/kg p.o.): 46.7 percentage of control
Inhibition of oedema, 21st day, right foot (daily dose 1.25 mg/kg p.o.): 35.6 percentage of control
Inhibition of oedema, 3rd day, left (challenged) foot (daily dose 2.50 mg/kg p.o.): 36.8 percentage of control
Inhibition of oedema, 21st day, left foot (daily dose 2.50 mg/kg p.o.): 58.0 percentage of control
Inhibition of oedema, 21st day, right foot (daily dose 2.50 mg/kg p.o.): 72.6 percentage of control
TD50 at 4 h (in vivo [10]): 5 mg/kg
Inhibition of oedema 30 min following carrageenin [11]: 23.6 and 42.3 and 42.7
Inhibition of oedema 180 min following carrageenin [11]: 30.5 and 53.0 and 53.4
Relative intestinal toxicity IUD50/ED50 (A) [11]: 5.8
ED50 at 180 min [11]: 2.4 mg/kg
reduction of indomethacin blood levels [12]: 30-50%
Oedema-inhibiting effect % ([2]; indomethacin 5 mg/kg p.o. alone): 40%
Oedema-inhibiting effect % ([2]; indomethacin 10 mg/kg p.o. alone): 45%

O=C(O)c1cccnc1Nc1cccc(C(F)(F)F)c1 [Niflumic acid]
ulcerogenic side-effects when administered together with sodium salicylate [1]: can also be antagonized effectively
main antiphlogistic effects when administered together with sodium salicylate [2]: remain unchanged, or even the antiphlogistic effects of the two active agents are superimposed

CCCCC1C(=O)N(c2ccccc2)N(c2ccccc2)C1=O [Phenylbutazone, 4-butyl-1,2-diphenyl-pyrazolidine-3,5-dione]
ulcerogenic side-effects when administered together with sodium salicylate [1]: can also be antagonized effectively
main antiphlogistic effects when administered together with sodium salicylate [2]: remain unchanged, or even the antiphlogistic effects of the two active agents are superimposed

O=C([O-])c1ccccc1O.[Na+] [Sodium salicylate]
No. of ulcer/stomach ([13]; 50 mg/kg p.o.): 0.1 ulcer/stomach
Ulcer-free animals % ([13]; 50 mg/kg p.o.): 82%
Ulcer-free animals No. ([13]; 50 mg/kg p.o.): 37 No.
No. of ulcer/stomach ([13]; 100 mg/kg p.o.): 0.1 ulcer/stomach
Ulcer-free animals % ([13]; 100 mg/kg p.o.): 96%
Ulcer-free animals No. ([13]; 100 mg/kg p.o.): 27 No.
No. of ulcer/stomach ([13]; 200 mg/kg p.o.): 1.2 ulcer/stomach
Ulcer-free animals % ([13]; 200 mg/kg p.o.): 50%
Ulcer-free animals No. ([13]; 200 mg/kg p.o.): 37 No.
No. of ulcer/stomach ([13]; 400 mg/kg p.o.): 1.1 ulcer/stomach
Ulcer-free animals % ([13]; 400 mg/kg p.o.): 71%
Ulcer-free animals No. ([13]; 400 mg/kg p.o.): 32 No.
gastrointestinal hemorrhagic or ulcerogenic side-effects of other non-steroidal antiphlogistic agents, specifically indomethacin ([13]; Series 1 discussion): antangonizes the gastrointestinal hemmorhagic or ulcerogenic side-effects
LD50 (in vivo [4]): 2400 mg/kg
inhibition of prostaglandin synthesis (prostaglandin synthesis): except Na-salicylate; also recorded: practically ineffective as a prostaglandin inhibitor
Analgesic ED50 [6]: 513 mg/kg
Therapeutical index LD50/ED50 (C) [6]: 4.6
selectivity ratio (in vivo [8]): 7.5
ED50 at 180 min [11]: 320 mg/kg
Oedema-inhibiting effect % ([2]; sodium salicylate 50 mg/kg p.o. alone): 15%
Oedema-inhibiting effect % ([2]; sodium salicylate 100 mg/kg p.o. alone): 43%

Reference: patent publication US4200631A, “Treating mammalian subject sensitive to indomethacin ulcerogenisis” (priority 1978, dated 1980)
